Key:
[1] = Drug-related adverse events graded by NCI CTCAE version 4.0; format: in vivo, human
[2] = Veliparib plasma pharmacokinetics; format: in vivo, human
metastatic malignancy = assay: Tumor response by RECIST version 1.1; format: in vivo, human
[3] = system: recombinant cytochrome P450s; details: cited from earlier work
metastatic breast cancer = details: veliparib with oral cyclophosphamide; cited from earlier work
[4] = system: γH2AX in circulating tumor cells (CTCs); assay: Total CTCs and γH2AX-positive CTCs; format: in vivo, human; details: veliparib and AC
[5] = system: MX-1 BRCA1 deficient breast cancer model; details: cyclophosphamide 12.5 mg/kg/day on days 20, 14, and 27 and veliparib 25 mg/kg/day; cited from earlier work
γH2AX in tumor = assay: γH2AX nuclear area positive score; format: in vivo, human; details: veliparib and AC, paired biopsy, baseline <5%
[6] = Group 2 N=22: veliparib Days 1-4 + AC Day 3
[7] = Groups 3 and 4 N=27: veliparib Days 1-7 or 1-14 + AC Day 1
[8] = Group 1 N=31: veliparib Days 1-4 + cyclophosphamide Day 3, all tumor types
[9] = Group 2 N=22: veliparib Days 1-4 + AC Day 3, all tumor types
[10] = Group 3 N=14: veliparib 100 mg every 12 h Days 1-7 + AC Day 1
[11] = Group 4 N=13: veliparib 100 mg every 12 h Days 1-14 + AC Day 1

Compound: C[C@]1(c2nc3c(C(N)=O)cccc3[nH]2)CCCN1 [veliparib, 2-[(R)-2-methylpyrrolidin-2-yl]-1H-benzimidazole-4-carboxamide]
- Vomiting, All Grades [1, 6]: 3 (14) n (%)
- Vomiting, Gr 3 [1, 6]: 0 (0) n (%)
- Vomiting, Gr 4 [1, 6]: 0 (0) n (%)
- White blood cell decreased, All Grades [1, 6]: 21 (95) n (%)
- White blood cell decreased, Gr 3 [1, 6]: 11 (50) n (%)
- White blood cell decreased, Gr 4 [1, 6]: 14 (64) n (%)
- Anemia, All Grades [1, 7]: 18 (67) n (%)
- Anemia, Gr 3 [1, 7]: 11 (41) n (%)
- Anemia, Gr 4 [1, 7]: 1 (4) n (%)
- Anorexia, All Grades [1, 7]: 0 (0) n (%)
- Anorexia, Gr 3 [1, 7]: 0 (0) n (%)
- Anorexia, Gr 4 [1, 7]: 0 (0) n (%)
- Dehydration, All Grades [1, 7]: 0 (0) n (%)
- Dehydration, Gr 3 [1, 7]: 0 (0) n (%)
- Dehydration, Gr 4 [1, 7]: 0 (0) n (%)
- Fatigue, All Grades [1, 7]: 4 (15) n (%)
- Fatigue, Gr 3 [1, 7]: 0 (0) n (%)
- Fatigue, Gr 4 [1, 7]: 0 (0) n (%)
- Febrile neutropenia, All Grades [1, 7]: 3 (11) n (%)
- Febrile neutropenia, Gr 3 [1, 7]: 3 (11) n (%)
- Febrile neutropenia, Gr 4 [1, 7]: 0 (0) n (%)
- Hyponatremia, All Grades [1, 7]: 0 (0) n (%)
- Hyponatremia, Gr 3 [1, 7]: 0 (0) n (%)
- Hyponatremia, Gr 4 [1, 7]: 0 (0) n (%)
- Hypophosphatemia, All Grades [1, 7]: 0 (0) n (%)
- Hypophosphatemia, Gr 3 [1, 7]: 0 (0) n (%)
- Hypophosphatemia, Gr 4 [1, 7]: 0 (0) n (%)
- Hypotension, All Grades [1, 7]: 0 (0) n (%)
- Hypotension, Gr 3 [1, 7]: 0 (0) n (%)
- Hypotension, Gr 4 [1, 7]: 0 (0) n (%)
- Lymphocyte count decreased, All Grades [1, 7]: 25 (93) n (%)
- Lymphocyte count decreased, Gr 3 [1, 7]: 23 (85) n (%)
- Nausea, All Grades [1, 7]: 6 (22) n (%)
- Nausea, Gr 3 [1, 7]: 0 (0) n (%)
- Nausea, Gr 4 [1, 7]: 0 (0) n (%)
- Neutrophil count decreased, All Grades [1, 7]: 21 (78) n (%)
- Neutrophil count decreased, Gr 4 [1, 7]: 19 (70) n (%)
- Platelet count decreased, All Grades [1, 7]: 19 (70) n (%)
- Platelet count decreased, Gr 3 [1, 7]: 7 (26) n (%)
- Platelet count decreased, Gr 4 [1, 7]: 6 (22) n (%)
- Sepsis, All Grades [1, 7]: 0 (0) n (%)
- Sepsis, Gr 3 [1, 7]: 0 (0) n (%)
- Sepsis, Gr 4 [1, 7]: 0 (0) n (%)
- Vomiting, All Grades [1, 7]: 4 (15) n (%)
- Vomiting, Gr 3 [1, 7]: 0 (0) n (%)
- Vomiting, Gr 4 [1, 7]: 0 (0) n (%)
- White blood cell decreased, All Grades [1, 7]: 24 (89) n (%)
- White blood cell decreased, Gr 3 [1, 7]: 21 (78) n (%)
- White blood cell decreased, Gr 4 [1, 7]: 14 (52) n (%)
- Patients given growth factor support after cycle 1 ([1]; across the whole trial (n=22 of 80)): 28%
- Patients requiring a dose reduction of veliparib ([1]; overall, 80 patients enrolled): 23 patients
- AUC0-7 on C1D3 (with combination therapy) compared to C1D1 (alone) ([2]; Groups 1 and 2): significantly higher
- Cmax on C1D3 (with combination therapy) compared to C1D1 (alone) ([2]; Groups 1 and 2): comparable
- Dose proportionality of Cmax and AUC0-7 ([2]; veliparib administered alone, 50 to 200 mg dose range, C1D1): approximately dose-proportional increases
- Overall clinical benefit rate (CBR) (metastatic malignancy; Group 1 (veliparib + cyclophosphamide)): 13%
- Complete response (best response achieved) (metastatic malignancy; [8]): 0 (0) n (%)
- Stable disease ≥3 months (best response achieved) (metastatic malignancy; [8]): 3 (10) n (%)
- Complete response (best response achieved) (metastatic malignancy; [9]): 0 (0) n (%)
- Partial response (best response achieved) (metastatic malignancy; [9]): 4 (18) n (%)
- Stable disease ≥3 months (best response achieved) (metastatic malignancy; [9]): 5 (23) n (%)
- Complete response (best response achieved) (metastatic malignancy; [10]): 0 (0) n (%)
- Partial response (best response achieved) (metastatic malignancy; [10]): 2 (14) n (%)
- Stable disease ≥3 months (best response achieved) (metastatic malignancy; [10]): 4 (29) n (%)
- Complete response (best response achieved) (metastatic malignancy; [11]): 0 (0) n (%)
- Partial response (best response achieved) (metastatic malignancy; [11]): 5 (38) n (%)
- Stable disease ≥3 months (best response achieved) (metastatic malignancy; [11]): 1 (8) n (%)
- Objective response (metastatic malignancy; V and AC treated groups (11/49)): 22%
- Overall clinical benefit rate (metastatic malignancy; all groups (25/80)): 31%
- Patients with a BRCA1/2 mutation noted to have PRs (metastatic malignancy; among the 59 metastatic breast cancer patients treated): 5 patients
- P450 involvement in incubations with recombinant cytochrome P450s ([3]; known when the study was developed, no reference given): potential involvement of CYP1A1, 2D6, 2C19, and 3A4
- Metabolizing enzymes ([3]; only partially by CYP1A2, 2C19 and 3A4): primarily metabolized by CYP2D6
- Clinical benefit (metastatic breast cancer): 19.2%
- Change in percentage of γH2AX-positive CTCs from Day 1 to Day 14 ([4]; groups 3 and 4 combined, p =0.0006): significant increase
- Change in CTCs from Day 1 to Day 7 ([4]; groups 3 and 4 combined, p =0.0007): significant decrease
- Change in CTCs from Day 1 to Day 14 ([4]; groups 3 and 4 combined, p =0.0009): significant decrease
- Change in percentage of γH2AX-positive CTCs from Day 1 to Day 7 ([4]; groups 3 and 4 combined, p =0.016): significant increase
- Patients in whom γH2AX-positive CTCs ≥ 50% persisted to day 14 ([4]; groups 3 and 4, cycle 1): 10 patients
- MTD or recommended phase II dose of veliparib with AC (Phase I dose escalation; Group 2: Days 1-4 with AC 60/600 mg/m^2 Day 3 every 21 days): 100 mg every 12 h
- No. of Pts with DLTS (Phase I dose escalation; Group 3 Level 1b: veliparib 100 mg every 12 h Days 1-7 + cyclophosphamide 600 mg/m^2 + doxorubicin 60 mg/m^2 Day 1, n=14): 0
- No. of Pts with DLTS (Phase I dose escalation; Group 4 Level 1b: veliparib 100 mg every 12 h Days 1-14 + cyclophosphamide 600 mg/m^2 + doxorubicin 60 mg/m^2 Day 1, n=13): 0
- Tumor effect of the combination [5]: tumor regression
- γH2AX nuclear area positive score (%NAP) after treatment (γH2AX in tumor; patient with partial response): 3.23%
- γH2AX nuclear area positive score (%NAP) after treatment (γH2AX in tumor; patient with progressive disease): 10.96%
- γH2AX nuclear area positive score (%NAP) after treatment (γH2AX in tumor; patient with stable disease): 5.2%
- γH2AX nuclear area positive score (%NAP) after treatment (γH2AX in tumor; response could not be assessed): 4.5%

Reference: publication PMC8934569 (Cancer chemotherapy and pharmacology, 2021)
